Test results: patent publication US8541572B2

tested on: TNF-α production in LPS-stimulated human whole blood; assay: Inhibition of TNF-α production from human whole blood (hWBA); assay type: cell-based; settings: Homo sapiens, IC50 for TNF-α production, LPS-stimulated human whole blood; read-out: hWBA

Row | IC50 [nM] | Compound
1 | 274 | COc1ccc2c(c1)C(=O)N(C[C@@]1(C#Cc3cccc(C(=NO)N4CCOCC4)c3)NC(=O)NC1=O)C2 [Compound 916]
2 | 435 | CCN1CCN(C(=NO)c2cncc(C#C[C@]3(CN4Cc5ccc(OC)cc5C4=O)NC(=O)NC3=O)c2)CC1 [Compound 923]
3 | 151 | COc1ccc2c(c1)C(=O)N(C[C@@]1(C#Cc3ccc(C(=NO)N4CCN(C5CCCCCC5)CC4)cc3)NC(=O)NC1=O)C2 [Compound 927]
4 | 278 | COc1ccc2c(c1)C(=O)N(C[C@@]1(C#Cc3ccc(C(=NO)N4CCN(c5ccccc5)CC4)cc3)NC(=O)NC1=O)C2 [Compound 928]
5 | 3550 | COc1ccc2c(c1)C(=O)N(C[C@@]1(C#Cc3ccc4c(c3)C(C)Oc3cccnc3-4)NC(=O)NC1=O)C2 (stereo partly drawn) [Compound 929]
6 | 65 | COc1ccc2c(c1)C(=O)N(C[C@@]1(C#Cc3ccc(C(=NO)N4CCN(C)CC4)cc3)NC(=O)NC1=O)C2 [Compound 943]
7 | 154 | COc1ccc2c(c1)C(=O)N(C[C@@]1(C#Cc3ccc(C(=NO)N4CCCCC4)cc3)NC(=O)NC1=O)C2 [Compound 946]

same assay, conditions: Homo sapiens, IC50 for inhibition of TNF-α production, LPS-stimulated human whole blood; read-out: hWBA

Row | IC50 [nM] | Compound
8 | 3130 | COc1ccc2c(c1)C(=O)N(C[C@@]1(C#Cc3ccc(CN4CCN(c5nccs5)CC4)cc3)NC(=O)NC1=O)C2 [Compound 980]
9 | 290 | COc1ccc2c(c1F)C(=O)N(C[C@@]1(C#Cc3ccc(CN4CCN(c5ccncc5)CC4)cc3)NC(=O)NC1=O)C2 [Compound 981]
10 | 255 | COc1ccc2c(c1F)C(=O)N(C[C@@]1(C#Cc3ccc(CN4CCN(C5CCCCC5)CC4)cc3)NC(=O)NC1=O)C2 [Compound 982]
11 | 100000 | COc1ccc2c(c1F)C(=O)N(C[C@]1(C#Cc3ccc(CN4CCN(C5CCCCC5)CC4)cc3)NC(=O)NC1=O)C2 [Compound 985]
12 | 2430 | COc1ccc2c(c1F)C(=O)N(C[C@@]1(C#Cc3ccc(-c4cccc(N5CCN(C6CCCCC6)CC5)n4)c(F)c3)NC(=O)NC1=O)C2 [Compound 994]
13 | 2560 | COc1ccc2c(c1F)C(=O)N(C[C@@]1(C#Cc3ccc(-c4cccc(N5CCOCC5)n4)c(F)c3)NC(=O)NC1=O)C2 [Compound 996]
14 | 4320 | COc1ccc2c(c1)C(=O)N(C[C@@]1(C#Cc3cccc(N4CCSCC4)n3)NC(=O)NC1=O)C2 [Compound 997]
15 | 106 | COc1ccc2c(c1F)C(=O)N(C[C@@]1(C#Cc3ccc(-c4nc(-c5cccnc5)ccc4O)cc3)NC(=O)NC1=O)C2 [Compound 1001]
16 | 119 | COc1ccc2c(c1F)C(=O)N(C[C@@]1(C#Cc3ccc(-c4nc(-c5cccnc5)ccc4O)c(F)c3)NC(=O)NC1=O)C2 [Compound 1002]

The next lines start with the compound.

Row | Compound | IC50 [nM]
17 | CCN1CCN(C(=O)c2ccc(C#C[C@]3(CN4Cc5ccc(OC)cc5C4=O)NC(=O)NC3=O)cc2)CC1 [Compound 960] | 446
18 | COc1ccc2c(c1)C(=O)N(C[C@@]1(C#Cc3ccc(C(=O)N4CCC(N5CCCCC5)CC4)cc3)NC(=O)NC1=O)C2 [Compound 963] | 401
19 | COc1ccc2c(c1)C(=O)N(C[C@@]1(C#Cc3ccc(-c4ccccc4O)cc3)NC(=O)NC1=O)C2 [Compound 969] | 652

same assay, conditions: IC50 for TNF-α production, LPS-stimulated human whole blood; read-out: hWBA

Row | IC50 [nM] | Compound
20 | 221 | COc1ccc2c(c1)C(=O)N(C[C@@]1(C#Cc3cccc(C(=NO)N4CCN(C)CC4)c3)NC(=O)NC1=O)C2 [Compound 915]
21 | 92 | COc1ccc2c(c1)C(=O)N(C[C@@]1(C#Cc3ccc(C(=NO)N4CCN(C5CC5)CC4)cc3)NC(=O)NC1=O)C2 [Compound 922]
22 | 1320 | COc1ccc2c(c1)C(=O)N(C[C@@]1(C#Cc3cncc(C(=NO)N4CCCN(C)CC4)c3)NC(=O)NC1=O)C2 [Compound 924]
23 | 74 | CCCCN1CCN(C(=NO)c2ccc(C#C[C@]3(CN4Cc5ccc(OC)cc5C4=O)NC(=O)NC3=O)cc2)CC1 [Compound 925]
24 | 76 | COc1ccc2c(c1)C(=O)N(C[C@@]1(C#Cc3ccc(C(=NO)N4CCN(C5CCCCC5)CC4)cc3)NC(=O)NC1=O)C2 [Compound 926]
25 | 504 | CCN1CCN(C(CO)c2ccc(C#C[C@]3(CN4Cc5ccc(OC)cc5C4=O)NC(=O)NC3=O)cc2)CC1 (stereo partly drawn) [Compound 930]
26 | 47 | COc1ccc2c(c1)C(=O)N(C[C@@]1(C#Cc3ccc(C(=NO)N4CCCN(C(C)C)CC4)cc3)NC(=O)NC1=O)C2 [Compound 931]
27 | 117 | COc1ccc2c(c1)C(=O)N(C[C@@]1(C#Cc3ccc(-c4ncccc4O)cc3)NC(=O)NC1=O)C2 [Compound 934]
28 | 1220 | COc1ccc2c(c1)C(=O)N(C[C@@]1(C#Cc3ccc(/C=N\Nc4ccccc4)cc3)NC(=O)NC1=O)C2 [Compound 935]
29 | 72.4 | CCN1CCN(c2ccc(O)c(-c3ccc(C#C[C@]4(CN5Cc6ccc(OC)cc6C5=O)NC(=O)NC4=O)cc3)n2)CC1 [Compound 936]
30 | 641 | COc1ccc2c(c1)C(=O)N(C[C@@]1(C#Cc3ccc(C(=NO)N4CCCC4)cc3)NC(=O)NC1=O)C2 [Compound 942]
31 | 86 | COc1ccc2c(c1)C(=O)N(C[C@@]1(C#Cc3ccc(C(=NO)N4CCC(=O)CC4)cc3)NC(=O)NC1=O)C2 [Compound 945]
32 | 220 | COc1ccc2c(c1)C(=O)N(C[C@@]1(C#Cc3ccc(C(=NO)N4CCN(C)CC4)s3)NC(=O)NC1=O)C2 [Compound 951]
33 | 571 | COc1ccc2c(c1)C(=O)N(C[C@@]1(C#Cc3ccc(C(=NO)N4CCOCC4)s3)NC(=O)NC1=O)C2 [Compound 952]
34 | 87 | COc1ccc2c(c1)C(=O)N(C[C@@]1(C#Cc3ccc(C(=NO)N4CCN(C)CC4)nc3)NC(=O)NC1=O)C2 [Compound 953]
35 | 87 | CCN1CCN(C(=NO)c2ccc(C#C[C@]3(CN4Cc5ccc(OC)cc5C4=O)NC(=O)NC3=O)cn2)CC1 [Compound 954]
36 | 652 | COc1ccc2c(c1)C(=O)N(C[C@@]1(C#Cc3ccc(-c4ccccc4O)cc3)NC(=O)NC1=O)C2 [Compound 955]

same assay, conditions: IC50 for inhibition of TNF-α production, LPS-stimulated human whole blood; read-out: hWBA

Row | IC50 [nM] | Compound
37 | 61.6 | COc1ccc2c(c1)C(=O)N(C[C@@]1(C#Cc3ccc(-c4nc(-c5cccnc5)ccc4OC(C)=O)cc3)NC(=O)NC1=O)C2 [Compound 975]
38 | 39.8 | CCN1CCN(c2ccc(O)c(-c3ccc(C#C[C@]4(CN5Cc6ccc(OC)cc6C5=O)NC(=O)NC4=O)cc3F)n2)CC1 [Compound 976]
39 | 782 | CCN1CCN(Cc2ccc(C#C[C@]3(CN4Cc5ccc(OC)cc5C4=O)NC(=O)NC3=O)cn2)CC1 [Compound 977]
40 | 156 | CCN1CCN(Cc2ccc(C#C[C@]3(CN4Cc5ccc(OC)c(F)c5C4=O)NC(=O)NC3=O)cn2)CC1 [Compound 978]
41 | 228 | COc1ccc2c(c1F)C(=O)N(C[C@@]1(C#Cc3ccc(CN4CCN(c5ccncc5)CC4)nc3)NC(=O)NC1=O)C2 [Compound 979]
42 | 250 | CCN1CCN(Cc2ccc(C#C[C@]3(CN4Cc5ccc(OC)c(F)c5C4=O)NC(=O)NC3=O)cc2F)CC1 [Compound 983]
43 | 695 | CCN1CCN(C(C)c2ccc(C#C[C@]3(CN4Cc5ccc(OC)c(F)c5C4=O)NC(=O)NC3=O)cc2)CC1 (stereo partly drawn) [Compound 984]
44 | 87 | COc1ccc2c(c1F)C(=O)N(C[C@@]1(C#Cc3ccc(-c4nc(-c5cnn(C)c5)ccc4O)cc3)NC(=O)NC1=O)C2 [Compound 986]
45 | 75.4 | COc1ccc2c(c1F)C(=O)N(C[C@@]1(C#Cc3ccc(-c4nc(-c5cnn(C)c5)ccc4O)c(F)c3)NC(=O)NC1=O)C2 [Compound 987]
46 | 42.8 | COc1ccc2c(c1)C(=O)N(C[C@@]1(C#Cc3ccc(-c4nc(-c5cnn(C)c5)ccc4OC(=O)C(C)(C)C)cc3)NC(=O)NC1=O)C2 [Compound 990]
47 | 606 | CCN1CCN(c2cccc(-c3ccc(C#C[C@]4(CN5Cc6ccc(OC)c(F)c6C5=O)NC(=O)NC4=O)cc3)n2)CC1 [Compound 991]
48 | 808 | CCN1CCN(c2cccc(-c3ccc(C#C[C@]4(CN5Cc6ccc(OC)c(F)c6C5=O)NC(=O)NC4=O)cc3F)n2)CC1 [Compound 992]
49 | 856 | COc1ccc2c(c1F)C(=O)N(C[C@@]1(C#Cc3ccc(-c4cccc(N5CCN(C6CCCCC6)CC5)n4)cc3)NC(=O)NC1=O)C2 [Compound 993]
50 | 1640 | COc1ccc2c(c1F)C(=O)N(C[C@@]1(C#Cc3ccc(-c4cccc(N5CCOCC5)n4)cc3)NC(=O)NC1=O)C2 [Compound 995]
51 | 4150 | COc1ccc2c(c1F)C(=O)N(C[C@@]1(C#Cc3ccc(-c4cccc(N5CCSCC5)n4)cc3)NC(=O)NC1=O)C2 [Compound 999]
52 | 124 | COc1ccc2c(c1F)C(=O)N(C[C@@]1(C#Cc3ccc(-c4nc(N5CCC(=O)CC5)ccc4O)cc3)NC(=O)NC1=O)C2 [Compound 1003]

Continued, compound first:

Row | Compound | IC50 [nM]
53 | COc1ccc2c(c1)C(=O)N(C[C@@]1(C#Cc3ccc(C(=O)N4CCN(C5CC5)CC4)cc3)NC(=O)NC1=O)C2 [Compound 961] | 1160
54 | COc1ccc2c(c1)C(=O)N(C[C@@]1(C#Cc3ccc(C(=O)N4CCN(C5CCCCC5)CC4)cc3)NC(=O)NC1=O)C2 [Compound 962] | 578
55 | CCN1CCN(C(=O)c2ccc(C#C[C@]3(CN4Cc5ccc(OC)c(F)c5C4=O)NC(=O)NC3=O)cc2)CC1 [Compound 964] | 308
56 | COc1ccc2c(c1F)C(=O)N(C[C@@]1(C#Cc3ccc(CN4CCOCC4)nc3)NC(=O)NC1=O)C2 [Compound 965] | 698
57 | COc1ccc2c(c1F)C(=O)N(C[C@@]1(C#Cc3ccc(CN4CCSCC4)nc3)NC(=O)NC1=O)C2 [Compound 966] | 588
58 | COc1ccc2c(c1F)C(=O)N(C[C@@]1(C#Cc3ccc(CN4CCCCC4)nc3)NC(=O)NC1=O)C2 [Compound 967] | 785
59 | COc1ccc2c(c1F)C(=O)N(C[C@@]1(C#Cc3ccc(CN4CCc5ccc(F)cc5C4)nc3)NC(=O)NC1=O)C2 [Compound 968] | 4980
60 | COc1ccc2c(c1)C(=O)N(C[C@@]1(C#Cc3ccc(-c4nc(-c5ccncc5)ccc4O)cc3)NC(=O)NC1=O)C2 [Compound 970] | 65
61 | COc1ccc2c(c1)C(=O)N(C[C@@]1(C#Cc3ccc(-c4nc(-c5cccnc5)ccc4O)cc3)NC(=O)NC1=O)C2 [Compound 971] | 80.2
62 | CCN1CCN(c2ccc(OC)c(-c3ccc(C#C[C@]4(CN5Cc6ccc(OC)cc6C5=O)NC(=O)NC4=O)cc3)n2)CC1 [Compound 972] | 573
63 | COc1ccc2c(c1)C(=O)N(C[C@@]1(C#Cc3ccc(-c4nc(-c5cnn(C)c5)ccc4O)cc3)NC(=O)NC1=O)C2 [Compound 973] | 61
